Assays:
[1] = tested on: genotype 1b-Con1 subgenomic replicon cell line; assay: microbe, parasite or virus in culture; type: cell-based, HCV; conditions: Hepatitis C virus, read-out: EC50 1b
[2] = tested on: genotype 1a-H77 subgenomic replicon cell line; assay: microbe, parasite or virus in culture; type: cell-based, HCV; conditions: Hepatitis C virus, read-out: EC50 1a

With `COc1c(/C=C/c2ccc(NS(C)(=O)=O)cc2COC(C)C)cc(-n2ccc(=O)[nH]c2=O)cc1C(C)(C)C` [IB-L1-1.25, N-(4-{(E)-2-[3-tert-butyl-5-(2,4-dioxo-3,4-dihydro-2H-pyrimidin-1-yl)-2-methoxy-phenyl]-vinyl}-3-isopropoxymethyl-phenyl)-methanesulfonamide] the EC50 [1] was less than 10 nM and the EC50 [2] was 10 to 100 nM.

Work on `COc1c(/C=C/c2ccc(F)cc2)cc(N2CCC(=O)NC2=O)cc1C(C)(C)C` [IA-L1-1.12, (E)-1-(3-tert-butyl-5-(4-fluorostyryl)-4-methoxyphenyl) dihydropyrimidine-2,4(1H,3H)-dione] yielded an EC50 [1] of 100 to 1000 nM and an EC50 [2] of 100 to 1000 nM.

With `COc1c(-c2nc3cc(NS(C)(=O)=O)ccc3s2)cc(N2CCC(=O)NC2=O)cc1C(C)(C)C` [IA-L0-2.4, N-(2-(3-tert-butyl-5-(2,4-dioxotetrahydropyrimidin-1(2H)-yl)-2-methoxyphenyl)benzo[d]thiazol-5-yl)methanesulfonamide] the EC50 [1] was 100 to 1000 nM and the EC50 [2] was greater than 1000 nM.

In the case of `COc1c(-c2ccsc2)cc(-n2ccc(=O)[nH]c2=O)cc1-c1ccc2cc(NS(C)(=O)=O)ccc2c1` [IB-L0-2.53, N-(6-(5-(2,4-dioxo-3,4-dihydropyrimidin-1(2H)-yl)-2-methoxy-3-(thiophen-3-yl)phenyl)naphthalen-2-yl)methanesulfonamide], the EC50 [1] is reported as 10 to 100 nM and the EC50 [2] is reported as 10 to 100 nM.

`COCCNC(=O)c1cc(NS(C)(=O)=O)ccc1/C=C/c1cc(-n2ccc(=O)[nH]c2=O)cc(C(C)(C)C)c1OC` [IB-L1-1.9, 2-{(E)-2-[3-tert-Butyl-5-(2,4-dioxo-3,4-dihydro-2H-pyrimidin-1-yl)-2-methoxy-phenyl]-vinyl}-5-methanesulfonylamino-N-(2-methoxy-ethyl)-benzamide] was tested, and the EC50 [1] was less than 10 nM and the EC50 [2] was 10 to 100 nM.

`COC(=O)c1cc(NS(C)(=O)=O)ccc1CCc1cc(-n2ccc(=O)[nH]c2=O)cc(C(C)(C)C)c1OC` [IB-L5-2-1.1, methyl 2-(3-tert-butyl-5-(2,4-dioxo-3,4-dihydropyrimidin-1(2H)-yl)-2-methoxyphenethyl)-5-(methylsulfonamido)benzoate] showed an EC50 [1] of less than 10 nM and an EC50 [2] of 10 to 100 nM.

In the case of `CC(C)(C)c1cc(CCc2ccc(NS(C)(=O)=O)cc2)cc(N2CCC(=O)NC2=O)c1` [IA-L5-2-1.2, N-(4-(3-tert-butyl-5-(2,4-dioxotetrahydropyrimidin-1(2H)-yl)phenethyl)phenyl)methane sulfonamide], the EC50 [1] is reported as 100 to 1000 nM and the EC50 [2] is reported as 100 to 1000 nM.

Molecule `COc1c(/C=C/c2ccc(NS(C)(=O)=O)cc2C(=O)N(C)C)cc(-n2ccc(=O)[nH]c2=O)cc1C(C)(C)C` [IB-L1-1.14, 2-{(E)-2-[3-tert-Butyl-5-(2,4-dioxo-3,4-dihydro-2H-pyrimidin-1-yl)-2-methoxy-phenyl]-vinyl}-5-methanesulfonylamino-N,N-dimethyl-benzamide] has an EC50 [1] of less than 10 nM and an EC50 [2] of 10 to 100 nM.

`COc1c(-c2nc3cc(NS(C)(=O)=O)ccc3o2)cc(N2CCC(=O)NC2=O)cc1C(C)(C)C` [IA-L0-2.8, N-(2-(3-tert-butyl-5-(2,4-dioxotetrahydropyrimidin-1(2H)-yl)-2-methoxyphenyl)benzo[d]oxazol-5-yl)methanesulfonamide] showed an EC50 [1] of 10 to 100 nM and an EC50 [2] of 100 to 1000 nM.

Work on `COc1c(/C=C/c2ccc(NS(C)(=O)=O)cc2)cc(-n2ccc(=O)[nH]c2=O)cc1-c1ccoc1` [IB-L1-1.50, (E)-N-(4-(5-(2,4-dioxo-3,4-dihydropyrimidin-1(2H)-yl)-3-(furan-3-yl)-2-methoxystyryl)phenyl)methanesulfonamide] yielded an EC50 [1] of 10 to 100 nM and an EC50 [2] of 100 to 1000 nM.

`COc1c(/C=C/c2ccc([N+](=O)[O-])cc2)cc(N2CCC(=O)NC2=O)cc1C(C)(C)C` [IA-L1-1.22, (E)-1-(3-tert-butyl-4-methoxy-5-(4-nitrostyryl)phenyl)dihydropyrimidine-2,4(1H,3H)-dione] showed an EC50 [1] of 100 to 1000 nM and an EC50 [2] greater than 1000 nM.

`COc1c(-c2ccc3cc(NS(C)(=O)=O)ccc3c2)cc(N2CCC(=O)NC2=O)cc1C(C)(C)C` [IA-L0-2.9, N-(6-(3-tert-butyl-5-(2,4-dioxotetrahydropyrimidin-1(2H)-yl)-2-methoxyphenyl)naphthalen-2-yl)methanesulfonamide] was tested, and the EC50 [1] was less than 10 nM and the EC50 [2] was less than 10 nM.

In the case of `COc1c(-c2nc3ccc([N+](=O)[O-])cc3o2)cc(N2CCC(=O)NC2=O)cc1C(C)(C)C` [IA-L0-2.6, 1-(3-tert-butyl-4-methoxy-5-(6-nitrobenzo[d]oxazol-2-yl)phenyl) dihydropyrimidine-2,4(1H,3H)-dione], the EC50 [1] is reported as greater than 1000 nM and the EC50 [2] is reported as greater than 1000 nM.

`COc1c(-c2ccc3cc(NS(C)(=O)=O)ccc3c2)cc(-n2ccc(=O)[nH]c2=O)cc1-c1ccco1` [IB-L0-2.59, N-(6-(5-(2,4-dioxo-3,4-dihydropyrimidin-1(2H)-yl)-3-(furan-2-yl)-2-methoxyphenyl)naphthalen-2-yl)methanesulfonamide] showed an EC50 [1] of 10 to 100 nM and an EC50 [2] of 100 to 1000 nM.

Molecule `COc1c(/C=C/c2ccc(NS(C)(=O)=O)cc2N)cc(-n2ccc(=O)[nH]c2=O)cc1C(C)(C)C` [IB-L1-1.28, (E)-N-(3-amino-4-(3-tert-butyl-5-(2,4-dioxo-3,4-dihydropyrimidin-1(2H)-yl)-2-methoxystyryl)phenyl)methanesulfonamide] has an EC50 [1] of less than 10 nM and an EC50 [2] of less than 10 nM.

Molecule `COc1c(/C=C/c2ccc(NS(C)(=O)=O)cc2CN2CC(O)C2)cc(-n2ccc(=O)[nH]c2=O)cc1C(C)(C)C` [IB-L1-1.29, N-[4-{(E)-2-[3-tert-butyl-5-(2,4-dioxo-3,4-dihydro-2H-pyrimidin-1-yl)-2-methoxy-phenyl]-vinyl}-3-(3-hydroxy-azetidin-1-ylmethyl)-phenyl]-methanesulfonamide] has an EC50 [1] of 100 to 1000 nM and an EC50 [2] of 100 to 1000 nM.

For `COc1c(/C=C(\C)c2ccc(NS(C)(=O)=O)cc2)cc(N2CCC(=O)NC2=O)cc1C(C)(C)C` [IA-L1-1.6, (E)-N-(4-(1-(3-tert-butyl-5-(2,4-dioxotetrahydropyrimidin-1(2H)-yl)-2-methoxyphenyl)prop-1-en-2-yl)phenyl)methanesulfonamide], the EC50 [1] was 10 to 100 nM and the EC50 [2] was 10 to 100 nM.

`COc1c(/C=C/c2ccc(NS(C)(=O)=O)cc2C(=O)N2CCCC2)cc(-n2ccc(=O)[nH]c2=O)cc1C(C)(C)C` [IB-L1-1.27, N-[4-{(E)-2-[3-tert-butyl-5-(2,4-dioxo-3,4-dihydro-2H-pyrimidin-1-yl)-2-methoxy-phenyl]-vinyl}-3-(pyrrolidine-1-carbonyl)-phenyl]-methanesulfonamide] was tested, and the EC50 [1] was less than 10 nM and the EC50 [2] was 10 to 100 nM.

`CNC(=O)c1cc(NS(C)(=O)=O)ccc1/C=C/c1cc(-n2ccc(=O)[nH]c2=O)cc(C(C)(C)C)c1OC` [IB-L1-1.17, 2-{(E)-2-[3-tert-butyl-5-(2,4-dioxo-3,4-dihydro-2H-pyrimidin-1-yl)-2-methoxy-phenyl]-vinyl}-5-methanesulfonylamino-N-methyl-benzamide] showed an EC50 [1] of less than 10 nM and an EC50 [2] of 10 to 100 nM.

For `COCCN(C)C(=O)c1cc(NS(C)(=O)=O)ccc1/C=C/c1cc(-n2ccc(=O)[nH]c2=O)cc(C(C)(C)C)c1OC` [IB-L1-1.24, 2-{(E)-2-[3-tert-butyl-5-(2,4-dioxo-3,4-dihydro-2H-pyrimidin-1-yl)-2-methoxy-phenyl]-vinyl}-5-methanesulfonylamino-N-(2-methoxy-ethyl)-N-methyl-benzamide], the EC50 [1] was less than 10 nM and the EC50 [2] was 10 to 100 nM.

`COc1c(/C=C/c2ccc(NS(C)(=O)=O)cc2)cc(-n2cc(Cl)c(=O)[nH]c2=O)cc1C(C)(C)C` [IB-L1-1.20, N-(4-{(E)-2-[3-tert-butyl-5-(5-chloro-2,4-dioxo-3,4-dihydro-2H-pyrimidin-1-yl)-2-methoxy-phenyl]-vinyl}-phenyl)-methanesulfonamide] was tested, and the EC50 [1] was less than 10 nM and the EC50 [2] was 10 to 100 nM.

`COc1c(/C=C(\C)c2ccc([N+](=O)[O-])cc2)cc(N2CCC(=O)NC2=O)cc1C(C)(C)C` [IA-L1-1.24, 1-{3-tert-butyl-4-methoxy-5-[(E)-2-(4-nitro-phenyl)-propenyl]-phenyl}-dihydro-pyrimidine-2,4-dione] showed an EC50 [1] greater than 1000 nM and an EC50 [2] greater than 1000 nM.

`CC(C)(C)c1cc(-n2ccc(=O)[nH]c2=O)cc(/C=C/c2ccc(NS(C)(=O)=O)cc2)c1Cl` [IB-L1-1.12, N-(4-{(E)-2-[3-tert-Butyl-2-chloro-5-(2,4-dioxo-3,4-dihydro-2H-pyrimidin-1-yl)-phenyl]-vinyl}-phenyl)-methanesulfonamide] was tested, and the EC50 [1] was 10 to 100 nM and the EC50 [2] was 10 to 100 nM.

In the case of `COc1c(-c2ccc3c(c2)/C(=N/NS(C)(=O)=O)CC3)cc(-n2ccc(=O)[nH]c2=O)cc1-c1ccco1` [IB-L0-2.55, (E)-N′-(6-(5-(2,4-dioxo-3,4-dihydropyrimidin-1(2H)-yl)-3-(furan-2-yl)-2-methoxyphenyl)-2,3-dihydro-1H-inden-1-ylidene)methanesulfonohydrazide], the EC50 [1] is reported as less than 10 nM and the EC50 [2] is reported as 10 to 100 nM.

`COc1c(/C=C/c2ccc(N(C(C)=O)S(C)(=O)=O)cc2)cc(N2CCC(=O)NC2=O)cc1C(C)(C)C` [IA-L1-1.11, (E)-N-(4-(3-tert-butyl-5-(2,4-dioxotetrahydropyrimidin-1(2H)-yl)-2-methoxystyryl)phenyl)-N-(methylsulfonyl)acetamide] showed an EC50 [1] of less than 10 nM and an EC50 [2] of less than 10 nM.

`COc1c(/C=C/c2ccc(NS(C)(=O)=O)cc2C=O)cc(-n2ccc(=O)[nH]c2=O)cc1C(C)(C)C` [IB-L1-1.6, N-(4-{(E)-2-[3-tert-Butyl-5-(2,4-dioxo-3,4-dihydro-2H-pyrimidin-1-yl)-2-methoxy-phenyl]-vinyl}-3-formyl-phenyl)-methanesulfonamide] was tested, and the EC50 [1] was less than 10 nM and the EC50 [2] was less than 10 nM.

With `COc1c(-c2ccc3ccccc3c2)cc(-n2ccc(=O)[nH]c2=O)cc1C(C)(C)C` [IB-L0-2.1, 1-(3-tert-butyl-4-methoxy-5-(naphthalen-2-yl)phenyl)pyrimidine-2,4(1H,3H)-dione] the EC50 [1] was 100 to 1000 nM and the EC50 [2] was greater than 1000 nM.

Work on `COc1c(/C=C/c2ccccc2)cc(N2CCC(=O)NC2=O)cc1C(C)(C)C` [IA-L1-1.18, (E)-1-(3-tert-butyl-4-methoxy-5-styrylphenyl)dihydro-pyrimidine-2,4(1H,3H)-dione] yielded an EC50 [1] of 100 to 1000 nM and an EC50 [2] of 100 to 1000 nM.

Reference: patent US8415351B2 (priority 2007, dated 2013)
